In the NIST ThermoML archive (doi:10.1016/j.jct.2006.07.012):
± gives the expanded uncertainty stated by the source.

Conditions: Fluid (supercritical or subcritical phases), Bellows volumetry

CCC [propane]
Conditions	mass density [kg/m3]
280 K, 581.4 kPa	519.39 ± 0.94
280 K, 604.8 kPa	519.45 ± 0.94
280 K, 628.1 kPa	519.49 ± 0.96
280 K, 651.4 kPa	519.57 ± 0.97
280 K, 674.7 kPa	519.62 ± 0.97
280 K, 698 kPa	519.69 ± 0.94
280 K, 721.4 kPa	519.75 ± 0.94
300 K, 1006 kPa	489.83 ± 0.88
300 K, 1029.4 kPa	489.89 ± 0.88
300 K, 1052.6 kPa	489.98 ± 0.88
300 K, 1075.9 kPa	490.05 ± 0.88
300 K, 1099.3 kPa	490.1 ± 0.88
300 K, 1122.6 kPa	490.2 ± 0.9
300 K, 1145.9 kPa	490.3 ± 0.88
320 K, 1611.1 kPa	455.49 ± 0.82
320 K, 1634.4 kPa	455.61 ± 0.82
320 K, 1657.6 kPa	455.75 ± 0.82
320 K, 1680.9 kPa	455.88 ± 0.84
320 K, 1704.2 kPa	455.99 ± 0.84
320 K, 1727.5 kPa	456.09 ± 0.82
320 K, 1750.7 kPa	456.24 ± 0.82
340 K, 2447.1 kPa	412.74 ± 0.74
340 K, 2470.3 kPa	412.98 ± 0.74
340 K, 2493.4 kPa	413.23 ± 0.74
340 K, 2516.6 kPa	413.48 ± 0.76
340 K, 2539.8 kPa	413.66 ± 0.76
340 K, 2563 kPa	413.88 ± 0.75
340 K, 2586.2 kPa	414.08 ± 0.74
360 K, 3558 kPa	346.61 ± 0.64
360 K, 3558.8 kPa	346.43 ± 0.64
360 K, 3566.8 kPa	346.83 ± 0.63
360 K, 3569.1 kPa	347.17 ± 0.63
360 K, 3569.9 kPa	346.97 ± 0.64
360 K, 3580.3 kPa	347.61 ± 0.63
360 K, 3591.6 kPa	348.04 ± 0.63
360 K, 3592.2 kPa	347.94 ± 0.63
360 K, 3602.8 kPa	348.46 ± 0.64
360 K, 3614 kPa	348.96 ± 0.69
360 K, 3614.5 kPa	348.91 ± 0.63
360 K, 3622.6 kPa	349.31 ± 0.63
360 K, 3625.2 kPa	349.4 ± 0.63
360 K, 3636.5 kPa	349.82 ± 0.71
360 K, 3636.9 kPa	349.82 ± 0.63
360 K, 3647.8 kPa	350.25 ± 0.65
360 K, 3659 kPa	350.7 ± 0.65
360 K, 3659.4 kPa	350.7 ± 0.65
360 K, 3670.3 kPa	351.13 ± 0.65
360 K, 3678.7 kPa	351.52 ± 0.65
360 K, 3681.8 kPa	351.59 ± 0.65
360 K, 3704.3 kPa	352.44 ± 0.8
360 K, 3726.8 kPa	353.19 ± 0.65
365 K, 3897.8 kPa	317.84 ± 0.66
365 K, 3903 kPa	318.4 ± 0.65
365 K, 3923.7 kPa	320.49 ± 0.64
365 K, 3944.7 kPa	322.39 ± 0.63
365 K, 3965.9 kPa	324.14 ± 0.63
365 K, 3987.2 kPa	325.86 ± 0.62
365 K, 4008.7 kPa	327.39 ± 0.61
365 K, 4030.4 kPa	328.84 ± 0.63
